Experimental data from patent publication US20130029981A1, “COMPOUNDS, COMPOSITIONS, AND METHODS FOR CONTROLLING BIOFILMS” (Katholieke Universiteit Leuven, priority 2009, published 2013).
Read-outs that look alike come from different tables or passages of the source.

Tested on: S. Typhimurium ATCC14028
Assay: Static peg assay for prevention of biofilm formation (Calgary device, crystal violet)
Type: cell-based, Salmonella Typhimurium
Method: (§1) Evaluation of the biofilm inhibitory activity of some substituted 2-amino-1H-imidazoles of the invention was carried out by growing up biofilms of S. Typhimurium ATCC14028 or SL1344 or Pseudomonas aeruginosa PA14 in the presence of different concentrations (1/2 dilution series) of biofilm inhibitors, by using the Calgary biofilm device. After an incubation period of 24 hours at 25° C. or 37° C. or 48 hours at 16° C. the biofilms were visualized by crystal violet staining. In the next step the stain was extracted from the biofilm with 30% acetic acid. The absorbance of the resolubilized stain at 570 nm is a measure of the amount of biofilm formed.
In examples 2 and 3, the following materials and methods were used.
The device used for biofilm formation is a platform carrying 96 polystyrene pegs (Nunc no. 445497) that fits as a microtiter plate lid with a peg hanging into each microtiter plate well (Nunc no. 269789). Biofilm formation assays were carried out at 16° C., 25° C. and 37° C.
For biofilm assays at 16° C. and 25° C., two-fold serial dilutions of the compounds in 100 μl liquid TSB 1/20 broth per well were prepared in the microtiter plate. Subsequently, an overnight culture of S. Typhimurium ATCC14028 or SL1344 (grown up in LB medium) was diluted 1:100 into TSB 1/20 broth and 100 μl (ca. 10^6 cells) was added to each well of the microtiter plates, resulting in a total amount of 200 μl medium per well. The pegged lid was placed on the microtiter plate and the plate was incubated for 48 hours at 16° C. or for 24 hours at 25° C. without shaking. During this incubation period biofilms were formed on the surface of the pegs. In case of the assay at 16° C., after 24 hours the lid was transferred into a new plate with medium and the specific molecules used for testing. […] For quantification of biofilm formation, the pegs were washed once in 200 μl phosphate buffered saline (PBS). The remaining attached bacteria were stained for 30 minutes with 200 μl 0.1% (w/v) crystal violet in an isopropanol/methanol/PBS solution (v/v 1:1:18). Excess stain was rinsed off by placing the pegs in a 96-well plate filled with 200 μl distilled water per well. After the pegs were air dried (30 min), the dye bound to the adherent cells was extracted with 30% glacial acetic acid (200 μl). The OD570 of each well was measured using the VERSAmax microtiter plate reader. The IC50 value for each compound was determined from concentration gradients in two or three independent experiments (with 2 or 3 repeats per experiment), by using the GraphPad software of Prism.
For biofilm assays at 37° C., two-fold serial dilutions of the compounds in 50 μl liquid CFA broth per well were prepared in the microtiter plate. Subsequently, an overnight culture of S. Typhimurium ATCC 14028 was diluted 1:100 into CFA broth and 100 μl (ca. 10^6 cells) was added to each well of the microtiter plates, resulting in a total amount of 150 μl medium per well. The pegged lid was placed on the microtiter plate and the plate was incubated for 24 hours at 37° C. without shaking. During incubation the plates were placed in a humidity controlled container to prevent evaporation of the growth medium. Quantification of biofilm formation was performed similarly as described above for the assays at 16° C. and 25° C.
as §1, with “imidazo[1,2-a]pyrimidinium bromide salts” for “2-amino-1H-imidazoles”

[1] = Salmonella enterica, 25° C., Table 11, read-out: IC50 (biofilm formation)
[2] = Salmonella enterica, 25° C., Table 14, read-out: IC50 biofilm inhibition
[3] = 25° C., strain not given, read-out: IC(50), preventive activity against S. typhimurium biofilms
[4] = 25° C., Table 19, read-out: IC50 (biofilm formation)
[5] = 25° C., Table 16, read-out: S. Typhimurium IC50 (biofilm formation)
[6] = S. Typhimurium ATCC 14028, 25° C., read-out: IC50 for biofilm inhibition (25° C.)

CCCCCCCCCNc1nc(-c2ccc(Cl)cc2)c[nH]1 [Compound 89]
IC50 (S. Typhimurium ATCC 14028, 25° C., read-out: S. Typhimurium IC50 (biofilm formation)): > 800 µM

CCCCCCN1c2nccc[n+]2C(C)C1(O)c1ccccc1 (centres unmarked) [R1=Hexyl, R3=Ph, R4=Me, 1-hexyl-2-hydroxy-2-phenyl-3-methyl-2,3-dihydro-1H-imidazo[1,2-a]pyrimidin-4-ium bromide]
IC50 [1]: 218 µM | IC50 [2]: 218 µM

Clc1ccc(-c2cnc(NCCCn3cc(-c4ccsc4)nn3)[nH]2)cc1Cl [R3=3,4-diClPh; R4=H; R9=thiofuran; n=3]
IC50 [3]: 2 µM

COc1cccc(CCN2c3nccc[n+]3CC2(O)c2ccc(F)cc2)c1 (centres unmarked) [Compound 76]
IC50 [4]: 105 µM

CC(C)(C)c1cn(CCNc2ncc(C(c3ccccc3)c3ccccc3)[nH]2)nn1 [R3=CHPh2; R4=H; R9=t-Butyl; n=2]
IC50 [3]: 30.9 µM

CC(C)(N)c1cn(CCCNc2ncc(-c3ccc(Br)cc3)[nH]2)nn1 [R3=4-BrPh; R4=H; R9=C(CH3)2(NH2); n=3]
IC50 [3]: 30.9 µM

CC(C)CN1c2nccc[n+]2CC1(O)c1ccc(Cl)c(Cl)c1 (centres unmarked) [Compound 48]
IC50 [5]: 8 µM

c1ccc(-c2c[nH]c(NC3CCCC3)n2)cc1 [R1=H, R2=cyclopentyl, R3=H, R4=Ph]
IC50 [6]: 53 µM

CCCCCCCCCCN1c2nccc[n+]2CC1(O)c1ccc(S(C)(=O)=O)cc1 (centres unmarked) [1-decyl-2-hydroxy-2-(4-methylsulfonylphenyl)-2,3-dihydro-1H-imidazo[1,2-a]pyrimidin-4-ium bromide]
IC50 (Salmonella enterica, 25° C., 24 hours, Table 15, read-out: (1) IC50 (biofilm inhibition)): 21.9 µM

Cc1ccc(-c2nc(NCCn3cc(C4CCCC4)nn3)[nH]c2-c2ccc(Cl)cc2)cc1 [R3=p-ClPh; R4=p-MePh; R9=c-Pentyl; n=2]
IC50 [3]: 6.5 µM

COc1ccc(CN2c3nccc[n+]3CC2(O)c2ccc(Br)cc2)cc1 (centres unmarked) [Compound 74]
IC50 (25° C., Table 11, read-out: IC50 (biofilm formation)): 105 µM | IC50 (25° C., Table 14, read-out: IC50 biofilm inhibition): 105 µM | IC50 [4]: 110 µM

O=[N+]([O-])c1ccc(C2(O)C[n+]3cccnc3N2C2CC2)cc1 (centres unmarked) [Compound 68]
IC50 (25° C., Table 18, read-out: S. Typhimurium IC50 (biofilm formation)): 125 µM

O=[N+]([O-])c1ccc(-c2c[nH]c(NC3CCCCC3)n2)cc1 [R1=H, R2=Cyclohexyl, R3=H, R4=p-NO2—Ph]
IC50 [6]: 44 µM

N#Cc1ccc(C2(O)C[n+]3cccnc3N2C2CCCCC2)cc1 (centres unmarked) [R1=cyclohexyl, R3=4-CN—Ph, R4=H, 1-cyclohexyl-2-hydroxy-2-(4-cyanophenyl)-2,3-dihydro-1H-imidazo[1,2-a]pyrimidin-4-ium bromide]
IC50 [1]: 354 µM | IC50 [2]: 354 µM

COc1ccc(-c2cn(CCNc3ncc(-c4ccc(Br)cc4)[nH]3)nn2)cc1 [R3=4-BrPh; R4=H; R9=pMeOPh; n=2]
IC50 [3]: 91.2 µM

CCCCCCCCCCN1c2nccc[n+]2CC1(O)c1ccc(-c2ccc(-c3ccc([N+](=O)[O-])cc3)cc2)cc1 (racemic)
IC50 (25° C., 24 hours, Table 15, read-out: (1) IC50 (biofilm inhibition)): 525 µM

Cc1ccc(C2(O)C[n+]3cccnc3N2C(C)C)cc1 (centres unmarked) [R1=Isopropyl, R3=4-Me—Ph, R4=H, 1-isopropyl-2-hydroxy-2-(4-methylphenyl)-2,3-dihydro-1H-imidazo[1,2-a]pyrimidin-4-ium bromide]
IC50 [1]: 217 µM | IC50 [2]: 217 µM

CN1c2nccc[n+]2CC1(O)c1ccc([N+](=O)[O-])cc1 (racemic) [Compound 28]
IC50 [5]: 698 µM
